Assay results taken from ChEMBL document CHEMBL4052645, “Discovery of potent and efficacious pyrrolopyridazines as dual JAK1/3 inhibitors” (Bioorg Med Chem Lett, 2017).

Assays:
[1] = biological target: Serine/threonine-protein kinase RIO3 (Homo sapiens) (UniProt O14730); assay: Inhibition of full length human RIOK3 (M1 to E519 residues) expressed in bacterial expression system assessed as residual activity at 50 nM by KINOMEscan assay relative to control
[2] = biological target: Epidermal growth factor receptor (Homo sapiens) (UniProt P00533); assay: Inhibition of wild-type human partial length EGFR (R669 to V1011 residues) expressed in bacterial expression system assessed as residual activity at 50 nM by Kinomescan method relative to control
[3] = biological target: Mitogen-activated protein kinase kinase kinase 3 (Homo sapiens) (UniProt Q99759); assay: Inhibition of wild-type human partial length MAP3K3 (E320 to Y626 residues) expressed in mammalian expression system assessed as residual activity at 50 nM by Kinomescan method relative to control
[4] = biological target: Phosphatidylinositol 4-phosphate 5-kinase type-1 gamma (Homo sapiens) (UniProt O60331); assay: Inhibition of wild-type human partial length PIP5K1C (M1 to T668 residues) expressed in mammalian expression system assessed as residual activity at 50 nM by Kinomescan method relative to control
[5] = biological target: Calcium/calmodulin-dependent protein kinase type II subunit beta (Homo sapiens) (UniProt Q13554); assay: Inhibition of wild-type human partial length CAMK2B (M1 to Q380 residues) expressed in bacterial expression system assessed as residual activity at 50 nM by Kinomescan method relative to control
[6] = biological target: Mitogen-activated protein kinase kinase kinase 9 (Homo sapiens) (UniProt P80192); assay: Inhibition of wild-type human partial length MLK1 (V88 to W426 residues) expressed in bacterial expression system assessed as residual activity at 50 nM by Kinomescan method relative to control
[7] = biological target: High affinity nerve growth factor receptor (Homo sapiens) (UniProt P04629); assay: Inhibition of wild-type human partial length TRKA (G475 to G790 residues) expressed in mammalian expression system assessed as residual activity at 50 nM by Kinomescan method relative to control
Sequence of High affinity nerve growth factor receptor (Homo sapiens) (P04629 33-796 limits assumed): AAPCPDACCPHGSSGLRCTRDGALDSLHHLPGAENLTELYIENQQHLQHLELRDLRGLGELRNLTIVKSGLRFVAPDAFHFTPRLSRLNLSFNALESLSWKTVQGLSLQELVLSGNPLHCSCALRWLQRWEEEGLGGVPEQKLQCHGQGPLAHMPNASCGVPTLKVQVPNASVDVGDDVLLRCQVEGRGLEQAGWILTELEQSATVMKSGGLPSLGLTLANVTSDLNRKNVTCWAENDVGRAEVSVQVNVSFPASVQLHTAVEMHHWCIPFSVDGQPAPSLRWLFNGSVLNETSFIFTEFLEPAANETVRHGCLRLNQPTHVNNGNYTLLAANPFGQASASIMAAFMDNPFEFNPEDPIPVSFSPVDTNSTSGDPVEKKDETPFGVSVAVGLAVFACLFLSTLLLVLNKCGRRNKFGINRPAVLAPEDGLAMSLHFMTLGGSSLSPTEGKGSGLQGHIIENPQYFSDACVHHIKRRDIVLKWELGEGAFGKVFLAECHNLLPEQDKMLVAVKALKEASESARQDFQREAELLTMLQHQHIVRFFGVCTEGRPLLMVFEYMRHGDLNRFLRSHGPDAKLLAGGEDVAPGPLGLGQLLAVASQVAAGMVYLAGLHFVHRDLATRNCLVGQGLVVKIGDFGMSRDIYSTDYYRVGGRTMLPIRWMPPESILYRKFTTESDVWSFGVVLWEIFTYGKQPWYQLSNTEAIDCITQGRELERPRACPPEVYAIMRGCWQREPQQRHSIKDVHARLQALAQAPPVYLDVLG

[8] = biological target: Fibroblast growth factor receptor 4 (Homo sapiens) (UniProt P22455); assay: Inhibition of wild-type human partial length FGFR4 (G402 to E713 residues) expressed in bacterial expression system assessed as residual activity at 50 nM by Kinomescan method relative to control
Sequence of Fibroblast growth factor receptor 4 (Homo sapiens) (P22455 22-802 limits assumed): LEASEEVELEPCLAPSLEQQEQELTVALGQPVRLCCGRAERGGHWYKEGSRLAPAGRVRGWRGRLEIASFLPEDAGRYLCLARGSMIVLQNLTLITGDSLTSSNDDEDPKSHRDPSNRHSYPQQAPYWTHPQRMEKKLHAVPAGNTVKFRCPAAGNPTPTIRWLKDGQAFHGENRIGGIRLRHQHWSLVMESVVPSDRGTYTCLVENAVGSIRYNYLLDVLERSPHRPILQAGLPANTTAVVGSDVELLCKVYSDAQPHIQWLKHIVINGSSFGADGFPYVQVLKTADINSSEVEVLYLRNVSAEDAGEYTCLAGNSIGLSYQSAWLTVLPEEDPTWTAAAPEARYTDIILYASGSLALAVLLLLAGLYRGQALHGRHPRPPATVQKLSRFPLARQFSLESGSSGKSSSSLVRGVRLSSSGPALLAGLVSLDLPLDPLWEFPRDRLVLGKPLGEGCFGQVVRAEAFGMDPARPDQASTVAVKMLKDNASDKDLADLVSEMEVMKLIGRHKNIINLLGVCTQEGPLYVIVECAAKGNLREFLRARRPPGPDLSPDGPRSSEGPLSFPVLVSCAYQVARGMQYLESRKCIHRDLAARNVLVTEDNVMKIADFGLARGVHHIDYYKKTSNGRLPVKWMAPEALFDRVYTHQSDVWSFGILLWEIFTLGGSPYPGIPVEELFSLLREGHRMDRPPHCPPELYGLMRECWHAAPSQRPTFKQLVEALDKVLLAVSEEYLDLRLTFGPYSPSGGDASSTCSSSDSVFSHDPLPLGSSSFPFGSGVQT

[9] = biological target: Death-associated protein kinase 3 (Homo sapiens) (UniProt O43293); assay: Inhibition of wild-type human partial length DAPK3 (M1 to A277 residues) expressed in bacterial expression system assessed as residual activity at 50 nM by Kinomescan method relative to control
[10] = biological target: Serine/threonine-protein kinase/endoribonuclease IRE1 (Homo sapiens) (UniProt O75460); assay: Inhibition of wild-type human partial length IRE1 (S551 to E852 residues) expressed in mammalian expression system assessed as residual activity at 50 nM by Kinomescan method relative to control
[11] = biological target: Casein kinase I isoform epsilon (Homo sapiens) (UniProt P49674); assay: Inhibition of wild-type human full length CK1E (M1 to K416 residues) expressed in bacterial expression system assessed as residual activity at 50 nM by Kinomescan method relative to control
[12] = biological target: LIM domain kinase 2 (Homo sapiens) (UniProt P53671); assay: Inhibition of wild-type human full length LIMK2 (M1 to P638 residues) expressed in bacterial expression system assessed as residual activity at 50 nM by Kinomescan method relative to control
[13] = biological target: Mitogen-activated protein kinase kinase kinase 4 (Homo sapiens) (UniProt Q9Y6R4); assay: Inhibition of wild-type human partial length MAP3K4 ([…] residues) expressed in mammalian expression system assessed as residual activity at 50 nM by Kinomescan method relative to control
Sequence of Mitogen-activated protein kinase kinase kinase 4 (Homo sapiens) (Q9Y6R4 whole entry, the tested form may be a part): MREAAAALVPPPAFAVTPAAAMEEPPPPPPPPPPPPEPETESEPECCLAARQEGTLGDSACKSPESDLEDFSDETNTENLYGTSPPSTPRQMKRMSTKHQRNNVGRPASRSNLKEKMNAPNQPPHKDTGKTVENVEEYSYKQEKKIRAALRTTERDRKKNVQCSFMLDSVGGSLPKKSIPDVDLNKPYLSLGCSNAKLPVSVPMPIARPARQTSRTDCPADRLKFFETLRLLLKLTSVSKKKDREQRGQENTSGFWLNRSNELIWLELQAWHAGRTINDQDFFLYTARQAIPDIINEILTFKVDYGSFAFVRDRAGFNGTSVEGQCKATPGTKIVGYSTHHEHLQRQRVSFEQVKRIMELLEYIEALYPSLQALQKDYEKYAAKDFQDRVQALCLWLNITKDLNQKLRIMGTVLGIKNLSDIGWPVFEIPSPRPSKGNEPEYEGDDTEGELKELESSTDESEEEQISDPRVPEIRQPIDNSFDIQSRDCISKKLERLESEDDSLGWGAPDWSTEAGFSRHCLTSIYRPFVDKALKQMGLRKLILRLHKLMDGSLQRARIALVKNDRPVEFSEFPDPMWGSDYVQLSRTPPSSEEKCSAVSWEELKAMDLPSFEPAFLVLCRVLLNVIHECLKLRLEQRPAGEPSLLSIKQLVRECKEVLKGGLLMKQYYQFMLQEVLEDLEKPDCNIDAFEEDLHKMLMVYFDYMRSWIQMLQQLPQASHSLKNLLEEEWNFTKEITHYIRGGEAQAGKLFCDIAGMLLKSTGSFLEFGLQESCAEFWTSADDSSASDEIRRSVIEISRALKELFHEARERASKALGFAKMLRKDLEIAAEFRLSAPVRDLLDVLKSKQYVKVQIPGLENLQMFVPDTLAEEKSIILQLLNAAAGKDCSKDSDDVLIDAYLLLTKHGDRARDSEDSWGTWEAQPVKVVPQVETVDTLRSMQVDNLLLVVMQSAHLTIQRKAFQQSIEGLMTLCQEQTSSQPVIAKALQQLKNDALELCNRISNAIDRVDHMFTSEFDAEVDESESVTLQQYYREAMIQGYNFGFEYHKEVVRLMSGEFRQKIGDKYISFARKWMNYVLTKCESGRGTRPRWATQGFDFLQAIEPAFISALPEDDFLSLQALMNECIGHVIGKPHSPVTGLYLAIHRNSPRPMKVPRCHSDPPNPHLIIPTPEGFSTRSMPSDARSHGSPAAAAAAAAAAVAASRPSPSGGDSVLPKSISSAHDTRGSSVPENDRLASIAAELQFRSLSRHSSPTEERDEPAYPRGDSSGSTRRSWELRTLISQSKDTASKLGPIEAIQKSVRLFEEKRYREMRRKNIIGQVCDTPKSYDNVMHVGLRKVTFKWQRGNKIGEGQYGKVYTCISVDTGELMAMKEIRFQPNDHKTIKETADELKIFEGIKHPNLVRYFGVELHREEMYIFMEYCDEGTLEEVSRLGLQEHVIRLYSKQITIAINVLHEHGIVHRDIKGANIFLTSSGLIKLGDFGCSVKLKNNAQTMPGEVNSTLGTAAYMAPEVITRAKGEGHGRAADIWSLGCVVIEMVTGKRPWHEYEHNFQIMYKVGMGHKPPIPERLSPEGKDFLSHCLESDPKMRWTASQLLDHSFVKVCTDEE

[14] = biological target: Tyrosine-protein kinase BTK (Homo sapiens) (UniProt Q06187); assay: Inhibition of wild-type human full length BTK (M1 to S659 residues) expressed in mammalian expression system assessed as residual activity at 50 nM by Kinomescan method relative to control
Sequence of Tyrosine-protein kinase BTK (Homo sapiens) (Q06187 whole entry, the tested form may be a part): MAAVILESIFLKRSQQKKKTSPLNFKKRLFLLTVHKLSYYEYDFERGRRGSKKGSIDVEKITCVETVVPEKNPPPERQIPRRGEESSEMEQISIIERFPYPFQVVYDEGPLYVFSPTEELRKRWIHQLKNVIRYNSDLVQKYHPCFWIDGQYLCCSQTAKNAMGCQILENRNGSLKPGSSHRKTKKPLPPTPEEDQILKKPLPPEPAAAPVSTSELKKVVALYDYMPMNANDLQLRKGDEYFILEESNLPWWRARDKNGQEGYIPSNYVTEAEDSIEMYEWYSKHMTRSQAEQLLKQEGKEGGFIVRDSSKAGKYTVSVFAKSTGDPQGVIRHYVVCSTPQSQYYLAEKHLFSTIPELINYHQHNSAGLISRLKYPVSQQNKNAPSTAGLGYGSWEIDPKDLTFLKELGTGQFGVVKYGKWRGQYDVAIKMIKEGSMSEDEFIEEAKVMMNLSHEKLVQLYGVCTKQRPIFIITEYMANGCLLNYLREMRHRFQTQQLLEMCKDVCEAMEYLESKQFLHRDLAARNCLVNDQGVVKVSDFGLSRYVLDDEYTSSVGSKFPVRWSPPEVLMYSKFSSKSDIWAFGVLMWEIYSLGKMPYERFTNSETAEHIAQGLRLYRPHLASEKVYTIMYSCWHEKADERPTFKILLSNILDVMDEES

[15] = biological target: RAC-beta serine/threonine-protein kinase (Homo sapiens) (UniProt P31751); assay: Inhibition of wild-type human partial length AKT2 expressed in bacterial expression system assessed as residual activity at 50 nM by Kinomescan method relative to control
[16] = biological target: CDK4/Cyclin D3 (Homo sapiens) (UniProt P11802+P30281); assay: Inhibition of wild-type human full length CDK4/cyclinD3 (M1 to E303 residues) expressed in mammalian expression system assessed as residual activity at 50 nM by Kinomescan method relative to control
[17] = biological target: Dual specificity tyrosine-phosphorylation-regulated kinase 2 (Homo sapiens) (UniProt Q92630); assay: Inhibition of wild-type human full length DYRK2 (M1 to S528 residues) expressed in mammalian expression system assessed as residual activity at 50 nM by Kinomescan method relative to control
[18] = biological target: Ephrin type-A receptor 4 (Homo sapiens) (UniProt P54764); assay: Inhibition of wild-type human partial length EPHA4 (T601 to R897 residues) expressed in bacterial expression system assessed as residual activity at 50 nM by Kinomescan method relative to control
[19] = biological target: Dual specificity mitogen-activated protein kinase kinase 4 (Homo sapiens) (UniProt P45985); assay: Inhibition of wild-type human partial length MAP2K4 (S84 to D399 residues) expressed in mammalian expression system assessed as residual activity at 50 nM by Kinomescan method relative to control
[20] = biological target: MAP kinase-activated protein kinase 5 (Homo sapiens) (UniProt Q8IW41); assay: Inhibition of wild-type human partial length MAPKAPK5 (M1 to D322 residues) expressed in mammalian expression system assessed as residual activity at 50 nM by Kinomescan method relative to control
[21] = biological target: Serine/threonine-protein kinase NLK (Homo sapiens) (UniProt Q9UBE8); assay: Inhibition of wild-type human full length NLK (M13 to E527 residues) expressed in bacterial expression system assessed as residual activity at 50 nM by Kinomescan method relative to control
Sequence of Serine/threonine-protein kinase NLK (Homo sapiens) (Q9UBE8 whole entry, the tested form may be a part): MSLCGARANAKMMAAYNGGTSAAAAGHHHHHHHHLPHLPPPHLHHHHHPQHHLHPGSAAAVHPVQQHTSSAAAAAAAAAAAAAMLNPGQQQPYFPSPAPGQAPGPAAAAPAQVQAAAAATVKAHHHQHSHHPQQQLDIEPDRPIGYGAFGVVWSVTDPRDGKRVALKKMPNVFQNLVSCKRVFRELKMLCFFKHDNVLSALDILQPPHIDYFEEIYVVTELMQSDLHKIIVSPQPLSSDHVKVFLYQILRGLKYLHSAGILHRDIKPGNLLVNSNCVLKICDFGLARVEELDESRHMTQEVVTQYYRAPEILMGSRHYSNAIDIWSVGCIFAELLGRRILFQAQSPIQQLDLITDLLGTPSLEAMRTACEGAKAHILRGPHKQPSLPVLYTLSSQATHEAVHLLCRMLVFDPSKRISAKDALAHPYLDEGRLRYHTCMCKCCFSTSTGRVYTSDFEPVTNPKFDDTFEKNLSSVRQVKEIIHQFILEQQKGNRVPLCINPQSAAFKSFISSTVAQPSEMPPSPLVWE

[22] = biological target: Mitogen-activated protein kinase 12 (Homo sapiens) (UniProt P53778); assay: Inhibition of wild-type human full length p38-gamma (M1 to L367 residues) expressed in mammalian expression system assessed as residual activity at 50 nM by Kinomescan method relative to control
[23] = biological target: cGMP-dependent protein kinase 1 (Homo sapiens) (UniProt Q13976); assay: Inhibition of wild-type human partial length PKG1 (L339 to F686 residues) expressed in bacterial expression system assessed as residual activity at 50 nM by Kinomescan method relative to control
Sequence of cGMP-dependent protein kinase 1 (Homo sapiens) (Q13976 whole entry, the tested form may be a part): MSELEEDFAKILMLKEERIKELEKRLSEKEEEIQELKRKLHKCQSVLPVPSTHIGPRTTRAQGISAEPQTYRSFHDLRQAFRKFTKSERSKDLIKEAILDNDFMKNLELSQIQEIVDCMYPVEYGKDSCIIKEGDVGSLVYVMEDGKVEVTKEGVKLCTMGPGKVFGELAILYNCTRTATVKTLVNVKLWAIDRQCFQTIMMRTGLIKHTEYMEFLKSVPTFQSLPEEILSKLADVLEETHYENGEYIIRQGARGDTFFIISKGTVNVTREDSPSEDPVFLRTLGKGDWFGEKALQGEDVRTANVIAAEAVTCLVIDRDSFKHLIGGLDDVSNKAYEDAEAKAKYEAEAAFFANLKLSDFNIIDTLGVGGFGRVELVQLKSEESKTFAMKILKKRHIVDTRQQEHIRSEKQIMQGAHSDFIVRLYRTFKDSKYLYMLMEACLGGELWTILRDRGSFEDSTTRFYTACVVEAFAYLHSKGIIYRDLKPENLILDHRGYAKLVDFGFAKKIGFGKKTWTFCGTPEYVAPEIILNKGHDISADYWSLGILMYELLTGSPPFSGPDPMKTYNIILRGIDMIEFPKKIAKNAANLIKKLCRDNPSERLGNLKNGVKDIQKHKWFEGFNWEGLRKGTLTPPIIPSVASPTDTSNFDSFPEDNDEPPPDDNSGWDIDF

[24] = biological target: SNF-related serine/threonine-protein kinase (Homo sapiens) (UniProt Q9NRH2); assay: Inhibition of wild-type human partial length SNRK (M1 to E339 residues) expressed in mammalian expression system assessed as residual activity at 50 nM by Kinomescan method relative to control
[25] = biological target: Serine/threonine-protein kinase 33 (Homo sapiens) (UniProt Q9BYT3); assay: Inhibition of wild-type human full length STK33 (M1 to L514 residues) expressed in bacterial expression system assessed as residual activity at 50 nM by Kinomescan method relative to control

| Compound | Activity [1] [%] | Activity [2] [%] | Activity [3] [%] | Activity [4] [%] | Activity [5] [%] | Activity [6] [%] | Activity [7] [%] | Activity [8] [%] | Activity [9] [%] | Activity [10] [%] | Activity [11] [%] | Activity [12] [%] | Activity [13] [%] | Activity [14] [%] | Activity [15] [%] | Activity [16] [%] | Activity [17] [%] | Activity [18] [%] | Activity [19] [%] | Activity [20] [%] | further results |
| --- | --- | --- | --- | --- | --- | --- | --- | --- | --- | --- | --- | --- | --- | --- | --- | --- | --- | --- | --- | --- | --- |
| CC1(C)[C@H](Nc2c(C(N)=O)cnn3cc(-c4ccccc4)cc23)CC[C@]1(C)N | 3.7 | 30 | 61 | 68 | 78 | 78 | 83 | 88 | 90 | 90 | 92 | 92 | 96 | 99 | 100 | 100 | 100 | 100 | 100 | 100 | Activity [21]: 100%; Activity [22]: 100%; Activity [23]: 100%; Activity [24]: 100%; Activity [25]: 100% |
| COc1ccc(-c2cc3c(N[C@@H]4CC[C@](C)(N)C4(C)C)c(C(N)=O)cnn3c2)cn1 | 66 | 100 | 71 | 77 | 92 | 90 | 100 | 91 | 97 | 90 | 87 | 100 | 96 | 100 | 88 | 80 | 100 | 100 | 100 | 100 | Activity [21]: 71%; Activity [22]: 100%; Activity [23]: 100%; Activity [24]: 92%; Activity [25]: 100% |
